Where two headings read alike, the source gives them in different places. Each block holds one compound with its values, some of them ahead of it. Where a SMILES comes first, the peptide text is derived from it. Bridges are numbered along the chain shown (N, C = ends). [ ]: non-standard residue; d: D form. Ala(imidazo(1,2-a)pyr3yl) = N[C@@H](Cc1cnc2ccccn12)C(=O)O; PEG12 = NCCOCCOCCOCCOCCOCCOCCOCCOCCOCCOCCOCCOCCC(=O)O; NMePhe(3-Cl) = CN[C@@H](Cc1cccc(Cl)c1)C(=O)O; NMeW = CN[C@@H](Cc1c[nH]c2ccccc12)C(=O)O; NMeY = CN[C@@H](Cc1ccc(O)cc1)C(=O)O; NMeF = CN[C@@H](Cc1ccccc1)C(=O)O; Chg = N[C@H](C(=O)O)C1CCCCC1; PEG4 = NCCOCCOCCOCCOCCC(=O)O; Abu = CC[C@H](N)C(=O)O
Molecular target: transferrin receptor (hTfR) (Homo sapiens, UniProt P02786)
Assay: Intermolecular interaction evaluation test between transferrin receptor (hTfR) and peptide by surface plasmon resonance (SPR)
Assay type: binding
Method in brief: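 Receptor was Ni-captured and EDC/NHS-fixed on an NTA chip; running buffer HEPES pH 8.0 with NaCl, Tween 20, BSA and 1.0% DMSO.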

[1] = surface plasmon resonance, peptide vs hTfR, read-out: KD value, hTfR binding by SPR (class symbol)
[2] = binding to hTfR by SPR, Table 2 peptides, read-out: KD value (SPR) class
[3] = surface plasmon resonance, hTfR, read-out: KD value for hTfR by SPR (class symbol)
[4] = SPR, hTfR No. 894 variants with PEG12c linker (Table 2), read-out: KD

transferrin receptor (hTfR), sequence (P02786 whole entry): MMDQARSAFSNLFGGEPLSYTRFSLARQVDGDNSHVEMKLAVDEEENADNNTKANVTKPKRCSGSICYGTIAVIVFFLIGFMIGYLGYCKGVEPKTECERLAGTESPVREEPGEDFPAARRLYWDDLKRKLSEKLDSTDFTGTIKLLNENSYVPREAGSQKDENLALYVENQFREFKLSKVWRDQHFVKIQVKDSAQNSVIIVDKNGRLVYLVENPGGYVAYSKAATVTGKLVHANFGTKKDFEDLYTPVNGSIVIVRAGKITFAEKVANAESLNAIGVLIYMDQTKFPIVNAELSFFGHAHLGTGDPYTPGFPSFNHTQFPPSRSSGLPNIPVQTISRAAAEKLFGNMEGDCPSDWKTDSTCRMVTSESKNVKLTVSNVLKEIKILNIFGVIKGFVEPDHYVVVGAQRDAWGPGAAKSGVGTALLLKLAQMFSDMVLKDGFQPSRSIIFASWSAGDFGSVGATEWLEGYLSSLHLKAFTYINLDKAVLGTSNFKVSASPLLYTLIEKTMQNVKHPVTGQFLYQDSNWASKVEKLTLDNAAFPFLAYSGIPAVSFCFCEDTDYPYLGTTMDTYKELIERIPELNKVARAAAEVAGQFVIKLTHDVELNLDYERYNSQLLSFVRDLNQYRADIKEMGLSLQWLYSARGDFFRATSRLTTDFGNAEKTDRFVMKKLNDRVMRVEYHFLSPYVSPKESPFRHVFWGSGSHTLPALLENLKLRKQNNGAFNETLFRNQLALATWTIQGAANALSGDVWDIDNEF

- Kd [1]: 1 to 100 nM
Structure (SMILES): CC[C@H](C)[C@@H]1NC(=O)[C@H](Cc2ccc(O)cc2)NC(=O)[C@H](Cc2ccc(O)cc2)NC(=O)[C@H](CC(N)=O)NC(=O)[C@H](Cc2c[nH]c3ccccc23)NC(=O)[C@H](C(C)C)NC(=O)[C@H](Cc2ccccc2)N(C)C(=O)[C@H](C(C)C)NC(=O)[C@H](C)NC(=O)CSC[C@@H](C(N)=O)NC(=O)[C@H](Cc2ccc(O)cc2)N(C)C(=O)[C@H](Cc2ccc(O)cc2)NC(=O)[C@H](CCCNC(=N)N)NC(=O)[C@H](CCCCN)NC(=O)[C@H]([C@@H](C)CC)NC1=O [compound 293]

- Kd (SPR, peptides, linker-added peptides and FITC conjugates, Patent ID 203-230, read-out: KD): 1 to 100 nM
Structure (SMILES): CC[C@H](C)[C@@H]1NC(=O)[C@H](Cc2ccc(OC)cc2)NC(=O)[C@H](Cc2ccc(O)cc2)NC(=O)[C@H](CC(N)=O)NC(=O)[C@H](Cc2c[nH]c3ccccc23)N(C)C(=O)[C@H](C(C)C)NC(=O)[C@H](Cc2cccc(Cl)c2)N(C)C(=O)[C@H](C(C)C)NC(=O)[C@H](C)N(C)C(=O)CSC[C@@H](C(N)=O)NC(=O)[C@H](Cc2ccc(O)cc2)N(C)C(=O)[C@H](Cc2ccccc2)NC(=O)[C@H](CCCNC(=N)N)NC(=O)[C@H](CCCCN)NC(=O)[C@H]([C@@H](C)CC)NC1=O [compound 213]

- Kd [2]: 100 to 1000 nM
Structure (SMILES): CC[C@H](C)[C@@H]1NC(=O)[C@H](Cc2ccc(O)cc2)NC(=O)[C@H](Cc2ccc(O)cc2)NC(=O)[C@H](CC(N)=O)NC(=O)[C@H](Cc2c[nH]c3ccccc23)NC(=O)[C@H](C(C)C)NC(=O)[C@H](Cc2ccccc2)NC(=O)[C@H](C(C)C)NC(=O)[C@H](C)NC(=O)CSC[C@@H](C(N)=O)NC(=O)[C@H](Cc2ccc(O)cc2)N(C)C(=O)[C@H](Cc2ccc(O)cc2)NC(=O)[C@H](C)NC(=O)[C@H](CCC(=O)O)NC(=O)[C@H]([C@@H](C)CC)NC1=O [compound 252]

- Kd [3]: 1 to 100 nM
Structure (SMILES): CC[C@H](C)[C@@H]1NC(=O)[C@H](Cc2ccc(OC)cc2)NC(=O)[C@H](Cc2ccc(O)cc2)NC(=O)[C@H](CC(N)=O)NC(=O)[C@H](Cc2c[nH]c3ccccc23)N(C)C(=O)[C@H](C(C)C)NC(=O)[C@H](Cc2cccc(Cl)c2)N(C)C(=O)[C@H](C(C)C)NC(=O)[C@H](C)NC(=O)CSC[C@@H](C(N)=O)NC(=O)[C@H](Cc2ccc(O)cc2)N(C)C(=O)[C@H](Cc2ccccc2)NC(=O)[C@H](CCCNC(=N)N)NC(=O)C(C)(CCCCN)NC(=O)[C@H]([C@@H](C)CC)NC1=O (some centres unmarked) [compound 379]

- Kd [4]: 1 to 100 nM
Structure (SMILES): CC[C@H](C)[C@@H]1NC(=O)[C@H](Cc2ccc(O)cc2)NC(=O)[C@H](Cc2ccc(O)cc2)NC(=O)[C@H](CC(N)=O)NC(=O)[C@H](Cc2c[nH]c3ccccc23)NC(=O)[C@H](C(C)C)NC(=O)[C@H](Cc2ccccc2)N(C)C(=O)[C@H](C(C)C)NC(=O)[C@H](C)NC(=O)CSC[C@@H](C(=O)NCCOCCOCCOCCOCCOCCOCCOCCOCCOCCOCCOCCOCCC(N)=O)NC(=O)[C@H](Cc2ccc(O)cc2)N(C)C(=O)[C@H](Cc2ccc(O)cc2)NC(=O)[C@H](CCCNC(=N)N)NC(=O)[C@H](Cc2ccc(O)cc2)NC(=O)[C@H]([C@@H](C)CC)NC1=O [compound 121] ({CH2CO}-AV[NMeF]VWNYYIIYRY[NMeY]C[PEG12]-NH2; thioether N-15)

- Kd [1]: 1 to 100 nM
Structure (SMILES): CC[C@@H]1NC(=O)[C@H]([C@@H](C)CC)NC(=O)[C@H](Cc2ccc(OC)cc2)NC(=O)[C@H](Cc2ccc(O)cc2)NC(=O)[C@H](CC(N)=O)NC(=O)[C@H](Cc2c[nH]c3ccccc23)N(C)C(=O)[C@H](C(C)C)NC(=O)[C@H](Cc2cccc(Cl)c2)N(C)C(=O)[C@H](C(C)C)NC(=O)[C@H](C)NC(=O)CSC[C@@H](C(=O)NCCOCCOCCOCCOCCC(N)=O)NC(=O)[C@H](Cc2ccc(O)cc2)N(C)C(=O)[C@H](Cc2ccccc2)NC(=O)[C@@H](CCCNC(=N)N)NC(=O)[C@H](CCCNC(=N)N)NC1=O [compound 325] ({CH2CO}-AV[NMePhe(3-Cl)]V[NMeW]NYY(Me)I[Abu]R[dR]F[NMeY]C[PEG4]-NH2; thioether N-15)

- Kd [4]: 1 to 100 nM
Structure (SMILES): CC[C@H](C)[C@@H]1NC(=O)[C@H](Cc2ccc(O)cc2)NC(=O)[C@H](Cc2c[nH]c3ccccc23)NC(=O)[C@H](CC(N)=O)NC(=O)[C@H](Cc2c[nH]c3ccccc23)NC(=O)[C@H](C(C)C)NC(=O)[C@H](Cc2ccccc2)N(C)C(=O)[C@H](C(C)C)NC(=O)[C@H](C)NC(=O)CSC[C@@H](C(=O)NCCOCCOCCOCCOCCOCCOCCOCCOCCOCCOCCOCCOCCC(N)=O)NC(=O)[C@H](Cc2ccc(O)cc2)N(C)C(=O)[C@H](Cc2ccc(O)cc2)NC(=O)[C@H](CCCNC(=N)N)NC(=O)[C@H](CCCNC(=N)N)NC(=O)[C@H]([C@@H](C)CC)NC1=O [compound 125] ({CH2CO}-AV[NMeF]VWNWYIIRRY[NMeY]C[PEG12]-NH2; thioether N-15)

- Kd [1]: 1 to 100 nM
Structure (SMILES): CC[C@H](C)[C@@H]1NC(=O)[C@H](Cc2ccc(O)cc2)NC(=O)[C@H](Cc2ccc(O)cc2)NC(=O)[C@H](CC(N)=O)NC(=O)[C@H](Cc2c[nH]c3ccccc23)NC(=O)[C@H](C(C)C)NC(=O)[C@H](Cc2cccc(Cl)c2)N(C)C(=O)[C@H](C(C)C)NC(=O)[C@H](C)NC(=O)CSC[C@@H](C(N)=O)NC(=O)[C@H](Cc2ccc(O)cc2)N(C)C(=O)[C@H](Cc2ccccc2)NC(=O)[C@H](CCCCN)NC(=O)[C@H](CC(=O)O)NC(=O)[C@H]([C@@H](C)CC)NC1=O [compound 307]

- Kd [2]: 1 to 100 nM
Structure (SMILES): CC[C@H](C)[C@@H]1NC(=O)[C@H](C2CCCCC2)NC(=O)[C@H](Cc2ccc(O)cc2)NC(=O)[C@H](Cc2ccc(O)cc2)NC(=O)[C@H](CC(N)=O)NC(=O)[C@H](Cc2c[nH]c3ccccc23)NC(=O)[C@H](C(C)C)NC(=O)[C@H](Cc2ccccc2)N(C)C(=O)[C@H](C(C)C)NC(=O)[C@H](C)NC(=O)CSC[C@@H](C(=O)NCCOCCOCCOCCOCCOCCOCCOCCOCCOCCOCCOCCOCCC(N)=O)NC(=O)[C@H](Cc2ccc(O)cc2)N(C)C(=O)[C@H](Cc2ccc(O)cc2)NC(=O)[C@H](CCCNC(=N)N)NC(=O)[C@H](CCCNC(=N)N)NC1=O [compound 283] ({CH2CO}-AV[NMeF]VWNYY[Chg]IRRY[NMeY]C[PEG12]-NH2; thioether N-15)

- Kd [3]: 1 to 100 nM
Structure (SMILES): CC[C@H](C)[C@@H]1NC(=O)[C@H](Cc2ccc(OC)cc2)NC(=O)[C@H](Cc2ccc(O)cc2)NC(=O)[C@H](CC(N)=O)NC(=O)[C@H](Cc2c[nH]c3ccccc23)N(C)C(=O)[C@H](C(C)C)NC(=O)[C@H](Cc2cccc(Cl)c2)N(C)C(=O)[C@H](C(C)C)NC(=O)[C@H](C)NC(=O)CSC[C@@H](C(N)=O)NC(=O)[C@H](Cc2ccc(O)cc2)N(C)C(=O)[C@H](Cc2ccccc2)NC(=O)[C@@H](CCCNC(=N)N)NC(=O)C2(CCN(C)CC2)NC(=O)[C@H]([C@@H](C)CC)NC1=O [compound 364]

- Kd (SPR, hTfR, class symbols A-D, read-out: KD): 1 to 100 nM
Structure (SMILES): CC[C@H](C)[C@@H]1NC(=O)[C@H](Cc2cnc3ccccn23)NC(=O)[C@H](Cc2ccc(O)cc2)NC(=O)[C@H](CC(N)=O)NC(=O)[C@H](Cc2c[nH]c3ccccc23)N(C)C(=O)[C@H](C(C)C)NC(=O)[C@H](Cc2cccc(Cl)c2)N(C)C(=O)[C@H](C(C)C)NC(=O)[C@H](C)NC(=O)CSC[C@@H](C(N)=O)NC(=O)[C@H](Cc2ccc(O)cc2)N(C)C(=O)[C@H](Cc2ccccc2)NC(=O)[C@@H](CCCNC(=N)N)NC(=O)[C@H](CCCNC(=N)N)NC(=O)[C@H]([C@@H](C)CC)NC1=O [compound 456] ({CH2CO}-AV[NMePhe(3-Cl)]V[NMeW]NY[Ala(imidazo(1,2-a)pyr3yl)]IIR[dR]F[NMeY]C-NH2; thioether N-15)

— patent publication US20230203098A1, “HUMAN TRANSFERRIN RECEPTOR BINDING PEPTIDE” (priority 2020, published 2023)
